Results taken from the NIST ThermoML archive (doi:10.1016/j.tca.2010.01.005).
Numbers after ± are expanded uncertainties.

Experiment: excess molar enthalpy (molar enthalpy of mixing); xn = mol fraction of the nth substance listed
Conditions: 303.15 K, 101 kPa, Liquid, Calvet calorimetry

BrCBr [dibromomethane] + CC(=O)c1ccccc1
Conditions	excess molar enthalpy [kcal/mol]
x1 = 0.1763	-0.0244 ± 0.000478
x1 = 0.3362	-0.0354 ± 0.000478
x1 = 0.4052	-0.0387 ± 0.000717
x1 = 0.4229	-0.0382 ± 0.000478
x1 = 0.5115	-0.0382 ± 0.000478
x1 = 0.6248	-0.0361 ± 0.000478
x1 = 0.7449	-0.0272 ± 0.000478
x1 = 0.852	-0.0182 ± 0.000478

BrCBr [dibromomethane] + CC#N
Conditions	excess molar enthalpy [kcal/mol]
x1 = 0.1028	0.0213 ± 0.000478
x1 = 0.2166	0.0349 ± 0.000478
x1 = 0.3067	0.0413 ± 0.000717
x1 = 0.4007	0.0428 ± 0.000717
x1 = 0.5547	0.0359 ± 0.000478
x1 = 0.6564	0.0256 ± 0.000478
x1 = 0.7022	0.0213 ± 0.000478
x1 = 0.8786	0.0055 ± 0.000239

c1ccoc1 [furan] + BrCBr
Conditions	excess molar enthalpy [kcal/mol]
x2 = 0.1499	0.0447 ± 0.000717
x2 = 0.2828	0.0554 ± 0.000717
x2 = 0.3405	0.0552 ± 0.000717
x2 = 0.4247	0.0507 ± 0.000717
x2 = 0.6268	0.0397 ± 0.000717
x2 = 0.7204	0.0344 ± 0.000478
x2 = 0.8358	0.0261 ± 0.000478
x2 = 0.9381	0.0131 ± 0.000239
